Paper PMC3726002 (Bioorganic & medicinal chemistry letters, 2011)

Tests used:
α9α10 nAChRs = α9α10 nAChRs (Rattus norvegicus, UniProt P43144+Q9JLB5); format: cell-based; details: for selectivity for the α9α10 subtype vs. the α7 subtype: ratio of α7 to α9α10 IC50; for inhibition of α9α10 ACh-gated currents at the probe concentration: 100 nM probe concentration, result in words
[1] = phase 2; cited from earlier work
[2] = rat; cited from earlier work
[3] = cited from earlier work; for tolerance to the antihyperalgesic effect: rat, repeated dosing (7 days)
[4] = cited from earlier work
[5] = rat CCI pain model as printed; cited from earlier work
α7 nAChR = α7 nAChR (Rattus norvegicus, UniProt Q05941); format: cell-based
GABAA receptors = assay: Interaction with GABAA receptors; details: unpublished data
5HT3 receptors = target: T1, 5HT3 receptors (Homo sapiens, UniProt P46098); assay: Affinity for 5HT3 receptors; format: binding; details: unpublished data
T1 sequence (P46098 24-478): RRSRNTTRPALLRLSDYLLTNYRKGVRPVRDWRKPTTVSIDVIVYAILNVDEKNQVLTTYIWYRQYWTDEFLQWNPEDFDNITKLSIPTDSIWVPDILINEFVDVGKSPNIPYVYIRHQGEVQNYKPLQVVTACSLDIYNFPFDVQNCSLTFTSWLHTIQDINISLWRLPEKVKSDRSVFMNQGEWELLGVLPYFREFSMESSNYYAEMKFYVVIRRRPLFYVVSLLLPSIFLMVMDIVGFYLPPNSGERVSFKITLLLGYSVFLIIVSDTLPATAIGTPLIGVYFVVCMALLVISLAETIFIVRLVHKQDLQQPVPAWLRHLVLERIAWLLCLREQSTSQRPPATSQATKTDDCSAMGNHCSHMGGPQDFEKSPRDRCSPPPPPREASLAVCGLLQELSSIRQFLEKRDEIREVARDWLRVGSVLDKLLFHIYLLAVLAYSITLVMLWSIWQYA

κ-opioid receptors = κ-opioid receptors (Homo sapiens, UniProt P41145); assay: Affinity for κ-opioid receptors; format: binding; details: unpublished data
GABAB receptors = GABAB receptors (Homo sapiens, UniProt O75899+Q9UBS5); assay: Interaction with GABAB receptors; details: unpublished data
GABAB receptors, sequence (Q9UBS5 15-961 limits assumed): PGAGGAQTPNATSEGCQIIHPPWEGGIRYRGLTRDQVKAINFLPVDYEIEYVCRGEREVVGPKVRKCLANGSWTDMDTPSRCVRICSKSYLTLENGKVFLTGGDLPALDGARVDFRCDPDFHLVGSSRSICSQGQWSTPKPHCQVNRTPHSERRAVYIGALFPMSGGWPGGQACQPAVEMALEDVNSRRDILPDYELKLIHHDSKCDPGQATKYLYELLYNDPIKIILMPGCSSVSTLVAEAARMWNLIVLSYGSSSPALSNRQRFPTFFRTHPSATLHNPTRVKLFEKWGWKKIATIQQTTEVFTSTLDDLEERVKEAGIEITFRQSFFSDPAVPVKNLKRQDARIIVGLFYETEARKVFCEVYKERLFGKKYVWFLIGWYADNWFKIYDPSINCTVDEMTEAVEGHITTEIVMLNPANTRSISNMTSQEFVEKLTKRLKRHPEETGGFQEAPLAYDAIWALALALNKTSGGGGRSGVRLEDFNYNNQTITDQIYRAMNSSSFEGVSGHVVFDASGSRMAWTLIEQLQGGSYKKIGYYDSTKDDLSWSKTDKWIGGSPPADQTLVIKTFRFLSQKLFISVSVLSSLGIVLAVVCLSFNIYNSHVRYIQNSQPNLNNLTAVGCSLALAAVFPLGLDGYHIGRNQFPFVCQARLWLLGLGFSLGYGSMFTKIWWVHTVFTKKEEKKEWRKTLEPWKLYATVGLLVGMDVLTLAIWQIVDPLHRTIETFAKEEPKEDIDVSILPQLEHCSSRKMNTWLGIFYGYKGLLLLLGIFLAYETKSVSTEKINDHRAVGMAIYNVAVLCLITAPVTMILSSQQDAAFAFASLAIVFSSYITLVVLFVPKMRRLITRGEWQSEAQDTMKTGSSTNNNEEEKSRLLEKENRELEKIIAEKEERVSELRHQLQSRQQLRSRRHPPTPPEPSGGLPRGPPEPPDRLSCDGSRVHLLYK
GABAB receptors, sequence (O75899 42-941): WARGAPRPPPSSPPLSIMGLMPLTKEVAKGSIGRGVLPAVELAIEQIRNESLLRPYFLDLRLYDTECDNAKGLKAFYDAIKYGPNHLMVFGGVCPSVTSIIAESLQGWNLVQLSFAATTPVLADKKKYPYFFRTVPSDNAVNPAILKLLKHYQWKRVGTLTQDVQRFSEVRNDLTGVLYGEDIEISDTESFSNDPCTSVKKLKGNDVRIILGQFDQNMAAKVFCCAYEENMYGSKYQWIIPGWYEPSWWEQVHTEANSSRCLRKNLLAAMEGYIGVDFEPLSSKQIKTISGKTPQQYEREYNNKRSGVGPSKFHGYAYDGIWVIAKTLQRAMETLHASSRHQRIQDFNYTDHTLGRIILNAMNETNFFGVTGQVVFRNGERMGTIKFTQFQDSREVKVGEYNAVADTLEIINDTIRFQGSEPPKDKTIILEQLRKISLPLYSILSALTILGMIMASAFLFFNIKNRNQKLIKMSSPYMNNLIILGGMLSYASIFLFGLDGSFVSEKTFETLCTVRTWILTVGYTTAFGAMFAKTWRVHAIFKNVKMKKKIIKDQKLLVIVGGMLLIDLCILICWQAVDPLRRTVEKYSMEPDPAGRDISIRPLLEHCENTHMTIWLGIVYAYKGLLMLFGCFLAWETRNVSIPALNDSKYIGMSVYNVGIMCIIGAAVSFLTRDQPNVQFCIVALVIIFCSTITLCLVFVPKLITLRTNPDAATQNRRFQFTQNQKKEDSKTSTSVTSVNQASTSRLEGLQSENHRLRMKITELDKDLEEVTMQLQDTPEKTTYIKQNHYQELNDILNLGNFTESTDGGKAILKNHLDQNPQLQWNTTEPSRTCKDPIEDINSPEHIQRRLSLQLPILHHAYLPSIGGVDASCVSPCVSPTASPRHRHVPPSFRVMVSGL

α7 nAChR, sequence (Q05941 23-502): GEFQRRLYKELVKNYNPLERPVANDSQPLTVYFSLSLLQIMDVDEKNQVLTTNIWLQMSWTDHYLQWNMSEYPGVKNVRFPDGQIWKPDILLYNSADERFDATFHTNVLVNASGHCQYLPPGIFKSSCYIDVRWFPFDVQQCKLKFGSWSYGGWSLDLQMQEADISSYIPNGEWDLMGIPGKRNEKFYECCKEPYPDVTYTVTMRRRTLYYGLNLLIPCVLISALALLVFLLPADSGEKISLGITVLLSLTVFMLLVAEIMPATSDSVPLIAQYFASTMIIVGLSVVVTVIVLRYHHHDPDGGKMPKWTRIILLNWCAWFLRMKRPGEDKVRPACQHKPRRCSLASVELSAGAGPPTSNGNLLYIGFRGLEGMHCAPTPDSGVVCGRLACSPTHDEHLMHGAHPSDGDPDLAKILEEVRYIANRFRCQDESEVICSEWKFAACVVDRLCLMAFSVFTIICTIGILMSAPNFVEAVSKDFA
α9α10 nAChRs, sequence (P43144 26-479): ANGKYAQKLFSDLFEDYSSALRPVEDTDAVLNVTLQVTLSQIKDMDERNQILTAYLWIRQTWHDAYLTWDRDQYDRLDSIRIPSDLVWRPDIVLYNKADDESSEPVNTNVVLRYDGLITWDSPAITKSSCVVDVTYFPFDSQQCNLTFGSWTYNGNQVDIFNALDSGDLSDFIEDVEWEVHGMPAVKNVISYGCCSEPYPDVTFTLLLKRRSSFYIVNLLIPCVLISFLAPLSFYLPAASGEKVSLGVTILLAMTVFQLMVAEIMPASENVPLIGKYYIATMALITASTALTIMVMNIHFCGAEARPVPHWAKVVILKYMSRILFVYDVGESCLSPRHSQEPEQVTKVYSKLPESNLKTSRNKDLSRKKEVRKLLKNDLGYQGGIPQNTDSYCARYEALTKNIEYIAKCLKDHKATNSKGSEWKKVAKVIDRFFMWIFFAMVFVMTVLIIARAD
α9α10 nAChRs, sequence (Q9JLB5 25-447): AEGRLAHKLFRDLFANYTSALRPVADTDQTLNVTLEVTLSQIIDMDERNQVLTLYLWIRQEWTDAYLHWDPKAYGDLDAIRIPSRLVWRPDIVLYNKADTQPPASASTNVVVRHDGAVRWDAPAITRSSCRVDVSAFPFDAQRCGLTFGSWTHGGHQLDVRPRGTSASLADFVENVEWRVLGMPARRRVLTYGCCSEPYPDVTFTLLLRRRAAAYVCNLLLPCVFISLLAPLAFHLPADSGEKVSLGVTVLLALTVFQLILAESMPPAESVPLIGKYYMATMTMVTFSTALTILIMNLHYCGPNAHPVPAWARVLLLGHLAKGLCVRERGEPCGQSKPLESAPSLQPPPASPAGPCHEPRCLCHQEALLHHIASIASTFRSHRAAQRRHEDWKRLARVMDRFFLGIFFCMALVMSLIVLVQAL
κ-opioid receptors, sequence (P41145 whole entry): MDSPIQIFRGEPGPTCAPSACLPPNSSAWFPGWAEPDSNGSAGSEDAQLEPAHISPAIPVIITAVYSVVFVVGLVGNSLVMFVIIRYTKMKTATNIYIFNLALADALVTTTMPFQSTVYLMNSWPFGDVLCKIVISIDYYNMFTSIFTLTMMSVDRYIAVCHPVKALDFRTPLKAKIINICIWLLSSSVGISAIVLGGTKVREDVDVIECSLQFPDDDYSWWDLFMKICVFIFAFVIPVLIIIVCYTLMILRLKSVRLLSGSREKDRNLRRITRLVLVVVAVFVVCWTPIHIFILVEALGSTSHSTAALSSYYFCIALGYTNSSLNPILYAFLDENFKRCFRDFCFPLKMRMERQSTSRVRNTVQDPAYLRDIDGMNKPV

## Cc1cc[n+](CC#Cc2ccc(-c3ccc(C#CC[n+]4ccc(C)c(C)c4)cc3)cc2)cc1C.[Br-].[Br-] [Compound 7a]
α9α10 nAChRs
  selectivity for the α9α10 subtype vs. the α7 subtype: 75 fold
[1]
  analgesic effect in the rat formalin model: demonstrated an analgesic effect
[2]
  efficacious doses versus doses producing toxicity in the rotarod test: efficacy was achieved at doses well below those that produced toxicity
[3]
  effect on mechanical hyperalgesia in the rat CCI model: reversed mechanical hyperalgesia in a dose-related manner
  tolerance to the antihyperalgesic effect: not observed
[4]
  analgesic effect in the rat tail-flick test: ineffective
[5]
  alleviation of vincristin-induced neuropathic pain: effective

## Cc1cc[n+](CCCc2ccc(-c3ccc(CCC[n+]4ccc(C)c(C)c4)cc3)cc2)cc1C.[Br-].[Br-] [Compound 8a]
α9α10 nAChRs
  IC50: 0.67 µM
  selectivity for the α9α10 subtype vs. the α7 subtype: 9 fold
α7 nAChR
  IC50: 6.01 µM

## C(#Cc1cc(C#CCCC[n+]2cccc(-c3ccccc3)c2)cc(C#CCCC[n+]2cccc(-c3ccccc3)c2)c1)CCC[n+]1cccc(-c2ccccc2)c1 [Compound 9e]
α9α10 nAChRs
  IC50: 0.0017 µM
α7 nAChR
  IC50: 0.185 µM

## [Br-].[Br-].[Br-].c1ccc2c(c1)ccc[n+]2CCCCCc1cc(CCCCC[n+]2cccc3ccccc32)cc(CCCCC[n+]2cccc3ccccc32)c1 [Compound 10c]
α9α10 nAChRs
  IC50: 0.0042 µM
[1]
  analgesic effect in the rat formalin model: demonstrated an analgesic effect
[2]
  efficacious doses versus doses producing toxicity in the rotarod test: efficacy was achieved at doses well below those that produced toxicity
[3]
  effect on mechanical hyperalgesia in the rat CCI model: reversed mechanical hyperalgesia in a dose-related manner
  tolerance to the antihyperalgesic effect: not observed
[4]
  analgesic effect in the rat tail-flick test: ineffective
α7 nAChR
  IC50: 1.51 µM

## c1ccc2c[n+](CCCCCc3cc(CCCCC[n+]4ccc5ccccc5c4)cc(CCCCC[n+]4ccc5ccccc5c4)c3)ccc2c1 [Compound 10d]
α9α10 nAChRs
  IC50: 0.0048 µM
α7 nAChR
  IC50: 0.17 µM

## c1ccc(-c2ccc[n+](CCCCCc3cc(CCCCC[n+]4cccc(-c5ccccc5)c4)cc(CCCCC[n+]4cccc(-c5ccccc5)c4)c3)c2)cc1 [Compound 10e]
α9α10 nAChRs
  IC50: 0.0037 µM
α7 nAChR
  IC50: 0.091 µM

## Cc1cc(C)c[n+](CCCC#Cc2cc(C#CCCC[n+]3cc(C)cc(C)c3)c(C#CCCC[n+]3cc(C)cc(C)c3)cc2C#CCCC[n+]2cc(C)cc(C)c2)c1.[Br-].[Br-].[Br-].[Br-] [Compound 11b]
α9α10 nAChRs
  inhibition of α9α10 ACh-gated currents at the probe concentration: nearly complete inhibition

## C(#Cc1cc(C#CCCC[n+]2cccc(-c3ccccc3)c2)c(C#CCCC[n+]2cccc(-c3ccccc3)c2)cc1C#CCCC[n+]1cccc(-c2ccccc2)c1)CCC[n+]1cccc(-c2ccccc2)c1.[Br-].[Br-].[Br-].[Br-] [Compound 11e]
GABAA receptors
  interaction with GABAA receptors: does not interact
α9α10 nAChRs
  IC50: 0.00056 µM
  inhibition of α9α10 ACh-gated currents at the probe concentration: nearly complete inhibition
5HT3 receptors
  affinity for 5HT3 receptors compared to α9α10 nAChRs: several orders of magnitude lower affinity
[1]
  analgesic effect in the rat formalin model: demonstrated an analgesic effect
[2]
  efficacious doses versus doses producing toxicity in the rotarod test: efficacy was achieved at doses well below those that produced toxicity
[3]
  effect on mechanical hyperalgesia in the rat CCI model: reversed mechanical hyperalgesia in a dose-related manner
  tolerance to the antihyperalgesic effect: not observed
[4]
  analgesic effect in the rat tail-flick test: ineffective
α7 nAChR
  IC50: 0.0088 µM
κ-opioid receptors
  affinity for κ-opioid receptors compared to α9α10 nAChRs: several orders of magnitude lower affinity
GABAB receptors
  interaction with GABAB receptors: does not interact

## Cc1cc(C)c[n+](CCCCCc2cc(CCCCC[n+]3cc(C)cc(C)c3)c(CCCCC[n+]3cc(C)cc(C)c3)cc2CCCCC[n+]2cc(C)cc(C)c2)c1.[Br-].[Br-].[Br-].[Br-] [Compound 12b]
α9α10 nAChRs
  inhibition of α9α10 ACh-gated currents at the probe concentration: nearly complete inhibition
